Data from US9326972B2, “Use of phenylmethimazoles, methimazole derivatives, and tautomeric cyclic thiones for the treatment of autoimmune/inflammatory diseases associated with toll-like receptor overexpression” (Ohio University, priority 2004, dated 2016).

Experiments:
[1] = tested on: NF-κB; assay: NF-κB Luc reporter gene in FRTL-5 thyrocytes; assay type: cell-based, rat; conditions: for NF-κB Luc Relative Luciferase Activity % of Control (±15%), +C10: 6 hours
Method: Poly (I:C) (the dsRNA ligand commonly used as a test compound) activates the TLR3 mediated NF-κ β/Map kinase signal pathway in FRTL-5 thyrocytes. FRTL-5 cells were transiently transfected with 100 ng of luciferase reporter pNF-κB Luc and 2 ng of internal control phRL-Tk. After 36 h, cells were incubated with 100 μg/ml poly (I:C) or endotoxin-free E. coli DNA for 6 h. Measurements were made with the Dual Luciferase Assay System (Promega). Poly (I:C) increased TLR3 mediated NF-κB mediated luciferase activity (gene expression) 6 fold; dsDNA had no effect. Further support came from electrophoretic mobility shift analyses (EMSA). When FRTL-5 thyrocytes were incubated with 100 μg/ml poly (I:C), IL-1β, TNF-α or TPA, cells lysed after 1 h, and nuclear translocation of NF-κB measured. The poly (I:C) induced p50/p65 complex formation as measured by the presence of a specific new protein/DNA complex and its inhibition by anti-p50 and p65 antibodies, but not by anti-p52, c-rel and Rel B antibodies; the complex was also supershifted by anti-p50. […] Additionally, when FRTL-5 cells were co-transfected with pCMV-BD-Elk 1 and pFR-luc, then incubated with 100 μg/ml poly (I:C) or IL-1β for 6 hrs, ELK1 transactivation was increased 2-fold by both Poly (I:C) and IL-1β when measured with the Dual Luciferase Assay System (Promega). NF-κB/MAP Kinase signals evoked by TLR3 binding dsRNA are only one portion of TLR3 functional expression.
Cells were co-transfected with ISRE-Luc and pRLTk-Int and then treated without (none) or with Poly I:C (100 μg/ml), LPS (100 ng/ml), IL-1β (10 ng/ml) TNF-α (25 ng/ml), IFN-β (100 U/ml) or IFN-γ (1000 U/ml) in the presence of DMSO (−) or C10 for 6 hours. Data were obtained using the Dual Luciferase Assay system. The effect on the ISRE element is not duplicated by an NF-κB reporter plasmid despite the similarity of the two elements: ([…])5 (SEQ ID NO:3) vs. ([…])5 (SEQ ID NO:4), respectively. Data are representative of multiple experiments.
Plasmids for Reporter Gene Assays. Human IRF-3 was amplified from human cDNA and cloned into pCR 2.1 by the TOPO/TA (Invitrogen, Carlsbad, Calif.) cloning method, and then sequenced. IRF-3 was then excised by EcoRI digestion and subcloned into pCMV-BD (Stratagene, La Jolla, Calif.) for use in transactivation assays. To construct IFN-β-luc the human IFN-β promoter sequence was amplified from human genomic DNA (Clontech, Palo Alto, Calif.)) using Ex Taq™ Polymerase (Takara, Madison, Wis.). The PCR fragment contained human IFN-β promoter sequence from −125 to +34 relative to the transcription start site (+1) and incorporated KpnI and XhoI restriction sites at the 5′ and 3′ ends, respectively. The primers were as follows: hIFN-β (−125) KpnI (5′-[…]-3′) (SEQ ID NO:9) and hIFN-β (+34) XhoI (5′-[…]-3′). (SEQ ID NO: 10) The fragment was digested with KpnI and XhoI then ligated into a similarly digested pGL3 Basic (Promega, Madison, Wis.) vector. The human MyD88 wild and dominant negative expression vectors were kindly donated by Dr. P. E. Auron. pFR-luc (5×Gal4 DNA binding domains and minimal TATA box), ISRE-Luc, NF-κB-luc and the Elk1 trans-Reporting System were purchased from Stratagene. pRL TK-Int was purchased from Promega.
Transient Expression Analysis. A DEAE procedure was used to transfect promoter-luciferase gene constructs and expression plasmids into FRTL-5 cells. Briefly, FRTL-5 cells were grown in 24-well plates to about 70% confluence, washed with 0.5 ml of serum-free culture medium (6H0 medium), then exposed to 125 μl of premade plasmid-DEAE mixture per well for 15 min at room temperature. The plasmid-DEAE mixture was prepared by incubating 100 ng of plasmid DNA, unless otherwise noted in individual experiments, with 3.125 μl of DEAE-Dextran (10 mg/ml) (Promega, Madison Wis.). FRTL-5 cells were incubated with this mixture for 2 hr at 37° C. in a CO2 incubator, before 2 ml of 6H5 medium was added. […]

[2] = tested on: iNOS; assay: LPS-induced iNOS mRNA in RAW 264.7 macrophages (RT-PCR); assay type: cell-based, mouse; conditions: RAW 264.7, LPS 3 hours, C10 in DMSO or vehicle B
Method: In macrophages NO production occurs as a result of LPS induction of iNOS (C. Bogdan, Nat Immunol, 2:907-16 (2001)) and is a process that depends on autocrine signaling by IFN-β. We used standard reverse transcriptase polymerase chain reaction to detect the inhibition of LPS induced iNOS transcription in the presence of C10 (FIG. 13A). The RAW 264.7 cells were treated with LPS in the presence of C10, its vehicle control, DMSO, or another excipient vehicle (compound B; see Table 8) for 3 hours. Table 8 establishes that C10 is effective in vivo in the mouse toxic shock model and in FRTL-5 cell assays in vitro when solubilized in water in the presence of the compound B excipient, i.e., water soluble forms of C10 are effective in both in vivo and in vitro just as C10 in DMSO. In the presence of DMSO control (FIG. 13A, lane 4) or vehicle B only (FIG. 13A, lane 5) little or no iNOS reduction was detected respectively when compared to LPS only (FIG. 13A lane 3).
Standard reverse transcriptase PCR for INOS: RNA was isolated as described above and treated with DNAse a described above. […] of DNA free RNA was then reverse transcribed with the Advantage® RT-for PCR kit (BD Biosciences, Palo Alto, Calif.) in a total volume of 20 μl. Five μl of cDNA was then amplified using ExTaq™ DNA polymerase (Takara, Madison, Wis.) in a reaction volume of 25 μl. […]

[3] = tested on: mice; assay: Colitis model in mice (DSS); assay type: in vivo, mouse; conditions: 10 animals, 0.1 mg/kg, 14 days

Cn1c(-c2ccccc2)cnc1S [Compound C10, 5-Phenylmethimazole]
NF-κB Luc Relative Luciferase Activity % of Control (±15%), +C10 ([1]; FRTL-5, Ligand IFN-β 100 U/ml): 150 % of Control
NF-κB Luc Relative Luciferase Activity % of Control (±15%), +C10 ([1]; FRTL-5, Ligand IFN-γ 1000 U/ml): 180 % of Control
NF-κB Luc Relative Luciferase Activity % of Control (±15%), +C10 ([1]; FRTL-5, Ligand IL-1β 10 ng/ml): 350 % of Control
NF-κB Luc Relative Luciferase Activity % of Control (±15%), +C10 ([1]; FRTL-5, Ligand LPS 100 ng/ml): 250 % of Control
NF-κB Luc Relative Luciferase Activity % of Control (±15%), +C10 ([1]; FRTL-5, Ligand None): 100 % of Control
NF-κB Luc Relative Luciferase Activity % of Control (±15%), +C10 ([1]; FRTL-5, Ligand Poly (I:C) 100 μg/ml): 300 % of Control
NF-κB Luc Relative Luciferase Activity % of Control (±15%), +C10 ([1]; FRTL-5, Ligand TNF-α 25 ng/ml): 225 % of Control
effect on Poly (I:C)-increased NF-κB-luciferase activity ([1]; FRTL-5, 0.5 mM C10 or 5 mM MMI): minimal effect
LPS induced iNOS mRNA [2]: strong reduction
Survival % of Control ([3]; Ip freshly diluted in DMSO): 100%
Survival % of Control ([3]; Oral stored in excipient 1 week): 100%
